Results on 20 compounds are retold here after PubChem BioAssay AID330 (DTP/NCI, 2004).

The experiment concerns P388 leukemia ip, CD2F1 mice, survival T/C. The experiment can be described thus: NCI In Vivo Anticancer Drug Screen. Data for tumor model P388 Leukemia (intraperitoneal) in CD2F1 (CDF1) mice. The settings on record: endpoint: median survival time, higher = longer survival. The essentials: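 Mice carrying the transplanted tumor received test compound or vehicle. Survival was recorded in each group, and the value is the treated-group measurement divided by that of the vehicle-treated control group.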

Setting [1] is: dose: 100.0 mg/kg/injection, schedule: Q04DX003 (ip), vehicle: saline with Tween-80.
Where [2] appears, read: dose: 200.0 mg/kg/injection, schedule: Q04DX003 (ip), vehicle: saline with Tween-80.
The mark [3] stands for this setting: dose: 400.0 mg/kg/injection, schedule: Q04DX003 (ip), vehicle: saline with Tween-80.
The mark [4] stands for this setting: dose: 50.0 mg/kg/injection, schedule: Q01DX009 (ip), vehicle: saline with Tween-80.
[5] abbreviates: dose: 100.0 mg/kg/injection, schedule: Q01DX009 (ip), vehicle: saline with Tween-80.
The mark [6] stands for this setting: dose: 200.0 mg/kg/injection, schedule: Q01DX009 (ip), vehicle: saline with Tween-80.
Where [7] appears, read: dose: 100.0 mg/kg/injection, schedule: Q01DX005 (ip), vehicle: saline with Tween-80.

Where “and” joins values, the source holds several entries; their conditions need not be identical. Equal entries are not always repeated. Toxic doses and inconclusive results are not listed.

Turning to `[Ni+2].[O-]c1ccccc1C=NCCCCCCN=Cc1ccccc1[O-]`, the T/C (dose: 50.0 mg/kg/injection, schedule: Q04DX002 (ip), vehicle: saline with Tween-80) is 94 % of control; the T/C (dose: 100.0 mg/kg/injection, schedule: Q04DX002 (ip), vehicle: saline with Tween-80) is 93 % of control; the T/C (dose: 200.0 mg/kg/injection, schedule: Q04DX002 (ip), vehicle: saline with Tween-80) is 93 % of control.
As for `Cc1ccc(C)c(C2=C/C(=C/c3ccc(N(CCC#N)CCC#N)cc3)C(=O)O2)c1`, the T/C by setting is: (dose: 100.0 mg/kg/injection, schedule: Q01DX001 (ip), vehicle: saline with Tween-80) 97 % of control; (dose: 200.0 mg/kg/injection, schedule: Q01DX001 (ip), vehicle: saline with Tween-80) 92 % of control; (dose: 400.0 mg/kg/injection, schedule: Q01DX001 (ip), vehicle: saline with Tween-80) 101 % of control.
In the case of `C=CCOC(=O)C1CC2OC2CC1C` (stereo not given), the T/C by setting is: (dose: 75.0 mg/kg/injection, schedule: Q01DX009 (ip), vehicle: saline with Tween-80) 96 % of control; (dose: 150.0 mg/kg/injection, schedule: Q01DX009 (ip), vehicle: saline with Tween-80) 103 % of control; (dose: 300.0 mg/kg/injection, schedule: Q01DX009 (ip), vehicle: saline with Tween-80) 97 % of control.
Take `CC(CN)OS(=O)(=O)O` (stereo not given): the T/C is 100 % of control under setting [1], 100 % of control under setting [2] and 95 % of control under setting [3].
In the case of `CCn1c2ccccc2c2cc(N=Nc3ccc4c(c3)c3ccccc3n4CC)ccc21`, the T/C reads like this: under setting [4], 105 % of control; under setting [5], 113 % of control.
Take `O=C(Nc1c2ccccc2nc2ccccc12)c1ccc([N+](=O)[O-])cc1`: the T/C was 94 % of control (dose: 50.0 mg/kg/injection, schedule: Q01DX005 (ip), vehicle: Klucel (hydroxypropylcellulose) (HPC)); 94 % of control (dose: 100.0 mg/kg/injection, schedule: Q01DX005 (ip), vehicle: Klucel (hydroxypropylcellulose) (HPC)); 100 % of control (dose: 200.0 mg/kg/injection, schedule: Q01DX005 (ip), vehicle: Klucel (hydroxypropylcellulose) (HPC)).
On to `CCC(=O)[C@]1(O)Cc2c(O)c3c(c(O)c2[C@@H](OC2CC(N)C(O)C(C)O2)C1)C(=O)c1c(OC)cccc1C3=O` (stereo not given in full), for which the T/C by setting is: (dose: 3.13 mg/kg/injection, schedule: Q04DX003 (ip), vehicle: water) 102 % of control; (dose: 6.25 mg/kg/injection, schedule: Q04DX003 (ip), vehicle: water) 112 % of control; (dose: 12.5 mg/kg/injection, schedule: Q04DX003 (ip), vehicle: water) 119 % of control; (dose: 25.0 mg/kg/injection, schedule: Q04DX003 (ip), vehicle: water) 119 % of control; (dose: 50.0 mg/kg/injection, schedule: Q04DX003 (ip), vehicle: water) 110 % of control.
Turning to `O=P1(N(CCCl)CCCl)Nc2cccc3cccc(c23)N1`, the T/C was 110 % of control and 111 % of control (dose: 6.25 mg/kg/injection, schedule: Q01DX009 (ip), vehicle: Klucel (hydroxypropylcellulose) (HPC)); 103 % of control and 114 % of control (dose: 12.5 mg/kg/injection, schedule: Q01DX009 (ip), vehicle: Klucel (hydroxypropylcellulose) (HPC)); 102 % of control and 119 % of control (dose: 25.0 mg/kg/injection, schedule: Q01DX009 (ip), vehicle: Klucel (hydroxypropylcellulose) (HPC)); 120 % of control (dose: 50.0 mg/kg/injection, schedule: Q01DX009 (ip), vehicle: Klucel (hydroxypropylcellulose) (HPC)).
Turning to `O=C(Nc1ccc(S(=O)(=O)c2ccc(NC(=O)c3ccco3)cc2)cc1)c1ccco1`, the T/C is, setting by setting: under setting [4], 105 % of control; under setting [5], 98 % of control; under setting [6], 95 % of control.
As for `COc1cccc2c1C(=O)c1c(O)c3c(c(O)c1C2=O)C[C@@](O)(C(=O)COC(=O)Cc1ccccc1)C[C@@H]3OC1CC(N)C(O)C(C)O1` (stereo not given in full), the T/C (dose: 1.0 mg/kg/injection, schedule: Q01DX009 (ip), vehicle: saline with Tween-80) was 166 % of control and 194 % of control; the T/C (dose: 1.32 mg/kg/injection, schedule: Q01DX009 (ip), vehicle: saline sonified) was 195 % of control; the T/C (dose: 2.0 mg/kg/injection, schedule: Q01DX009 (ip), vehicle: saline sonified) is 215 % of control; the T/C (dose: 2.0 mg/kg/injection, schedule: Q01DX009 (ip), vehicle: saline with Tween-80) was 151 % of control and 166 % of control and 212 % of control; the T/C (dose: 3.0 mg/kg/injection, schedule: Q01DX009 (ip), vehicle: saline sonified) is 270 % of control; the T/C (dose: 16.0 mg/kg/injection, schedule: Q01DX009 (ip), vehicle: saline with Tween-80) is 105 % of control.
On to `CC(=O)/C(=C\c1ccc(Cl)c(Cl)c1)C(=O)CCN(C)C`, for which the T/C is 110 % of control and 117 % of control (dose: 12.5 mg/kg/injection, schedule: Q01DX005 (ip), vehicle: saline); 117 % of control (dose: 25.0 mg/kg/injection, schedule: Q01DX005 (ip), vehicle: saline with Tween-80); 100 % of control and 107 % of control (dose: 25.0 mg/kg/injection, schedule: Q01DX005 (ip), vehicle: saline); 110 % of control and 111 % of control (dose: 50.0 mg/kg/injection, schedule: Q01DX005 (ip), vehicle: saline); 151 % of control under setting [7].
With `O=NN(C(=O)NCc1cccnc1)C1CCCCC1`, the T/C by setting is: (dose: 25.0 mg/kg/injection, schedule: Q01DX001 (ip), vehicle: distilled water + Tween-80) 115 % of control; (dose: 50.0 mg/kg/injection, schedule: Q01DX001 (ip), vehicle: distilled water + Tween-80) 110 % of control; (dose: 100.0 mg/kg/injection, schedule: Q01DX001 (ip), vehicle: distilled water + Tween-80) 106 % of control; (dose: 200.0 mg/kg/injection, schedule: Q01DX001 (ip), vehicle: distilled water + Tween-80) 102 % of control; (dose: 400.0 mg/kg/injection, schedule: Q01DX001 (ip), vehicle: distilled water + Tween-80) 102 % of control.
As to `O=C(c1ccccc1)c1ccccc1NCC(O)COc1ccc(Cl)cc1` (stereo not given), the T/C by setting is: (dose: 60.0 mg/kg/injection, schedule: Q01DX005 (ip), vehicle: saline with Tween-80) 88 % of control and 96 % of control; (dose: 120.0 mg/kg/injection, schedule: Q01DX005 (ip), vehicle: saline with Tween-80) 100 % of control; (dose: 240.0 mg/kg/injection, schedule: Q01DX005 (ip), vehicle: saline with Tween-80) 99 % of control.
Turning to `O=C1C[N+]2(Cc3ccccc3)CCC1CC2`, the T/C runs as follows: (dose: 12.5 mg/kg/injection, schedule: Q01DX009 (ip), vehicle: saline) 101 % of control; (dose: 25.0 mg/kg/injection, schedule: Q01DX009 (ip), vehicle: saline) 108 % of control; (dose: 50.0 mg/kg/injection, schedule: Q01DX009 (ip), vehicle: saline) 90 % of control.
Turning to `O=C(O)c1ccccc1C(=O)O`, the T/C was 102 % of control (dose: 12.5 mg/kg/injection, schedule: Q01DX009 (ip), vehicle: water); 102 % of control (dose: 25.0 mg/kg/injection, schedule: Q01DX009 (ip), vehicle: water); 98 % of control (dose: 50.0 mg/kg/injection, schedule: Q01DX009 (ip), vehicle: water); 92 % of control (dose: 100.0 mg/kg/injection, schedule: Q01DX009 (ip), vehicle: water); 88 % of control (dose: 200.0 mg/kg/injection, schedule: Q01DX009 (ip), vehicle: water).
On to `Cc1ccc(Cl)c2ccccc12`, for which the T/C is 113 % of control under setting [4] and 108 % of control under setting [5].
Regarding `CCc1nc(-c2ccccc2)c(-c2ccccc2)[nH]1`, the T/C reads like this: under setting [1], 90 % of control; under setting [2], 90 % of control; under setting [3], 95 % of control.
As for `CCOC(=O)CCC[P+](c1ccccc1)(c1ccccc1)c1ccccc1`, the T/C is, setting by setting: (dose: 5.33 mg/kg/injection, schedule: Q01DX009 (ip), vehicle: saline with Tween-80) 109 % of control; (dose: 8.0 mg/kg/injection, schedule: Q01DX009 (ip), vehicle: saline with Tween-80) 118 % of control; (dose: 12.0 mg/kg/injection, schedule: Q01DX009 (ip), vehicle: saline with Tween-80) 109 % of control.
Turning to `CCOC(=O)c1c(C)c(C(=O)OCC)n(C)c1C=O`, the T/C by setting is: under setting [5], 97 % of control; under setting [6], 97 % of control; (dose: 400.0 mg/kg/injection, schedule: Q01DX009 (ip), vehicle: saline with Tween-80) 96 % of control.
For `Cc1[nH]nc2c1NC(=O)OC2`, the T/C runs as follows: (dose: 50.0 mg/kg/injection, schedule: Q01DX005 (ip), vehicle: saline with Tween-80) 104 % of control; under setting [7], 104 % of control; (dose: 200.0 mg/kg/injection, schedule: Q01DX005 (ip), vehicle: saline with Tween-80) 106 % of control.
